This is an account of results in patent US20220338477A1, “MYCOBACTERIUM BACTERICIDE” (SANKEI CO., LTD., priority 2019, published 2022).

In test [1] the test system is M. intracellulare. In words: Test for studying disinfecting effect of chlorous acid aqueous solution and sodium hypochlorite on M. intracellulare. Format: cell-based, Mycobacterium intracellulare. The note with it: for free chlorine concentration (as Cl) at which a disinfecting effect (reducing the bacteria count 4 log or greater) is exhibited: contact time 1 min. The procedure:
(§1) As a measuring method of free chlorine (as Cl), a buffer and a DPD indicator are added to a sample and a wavelength of 510 nm is measured with an absorption spectrophotometer, and for measurement of free chlorine (as Cl) in the presence of an organic matter, measurement is taken at a wavelength of 655 nm using a TMB reagent to find the concentration from the measurement values. Further, a method of conducting a test for studying the disinfecting effect prepares free chlorine (as Cl) of a test agent by a DPD method, contacts each agent with an organic matter-containing bacterial solution, neutralizes the solution with sodium thiosulfate after a certain period of time has passed, and checks the viable bacteria count of the neutral solution.
For the “chlorous acid aqueous solution formulation manufactured with chlorous acid aqueous solution” prepared based on the preparation method described above, the concentration of “chlorous acid aqueous solution” was measured based on the “Quantification method of chlorous acid aqueous solution” described above, and buffer prepared to achieve the free chlorine concentration described in each Example (phosphate buffer comprising dipotassium hydrogen phosphate and potassium dihydrogen phosphate) was used to prepare the chlorous acid aqueous solution of each Example.
The disinfecting effects of chlorous acid aqueous solutions and sodium hypochlorite on M. intracellulare were studied in the absence of an organic matter and in the presence of an organic matter, i.e., 0.5% bovine serum albumin (hereinafter, BSA) (FIG. 1). If an effect of reducing the bacteria count is 4 log or greater, the agent is considered as having a disinfecting effect.

Test [2] deals with chromosomal DNA of M. intracellulare. In words: Pulsed-field gel electrophoresis of chromosomal DNA after disinfection of M. intracellulare. Format: cell-based, Mycobacterium intracellulare. The following applies: compared with water. From the text:
In order to study the disinfection mechanism of chlorous acid aqueous solutions, with the understanding that a chlorous acid aqueous solution is unlikely to disinfect by acting on the bacterial surface in view of the results of SEM, chromosomal DNA was extracted from bacteria after disinfection, and the state of the chromosomal DNA was examined through pulsed-field gel electrophoresis in order to study the effect of a chlorous acid aqueous solution on chromosomal DNA of bacteria.

Test [3] concerns other mycobacteria (JCM135429, JCM135430, JCM135431, JCM135432, JCM6387, JCM6390, JCM13569). In words: Disinfecting effect on other mycobacteria. Format: cell-based. As for the experimental part:
as §1
Additional studies were conducted to find whether a disinfecting effect is observed on other mycobacteria. In the absence of organic matters, an effect of chlorous acid aqueous solutions was also observed on other mycobacteria at free chlorine of 50 ppm or greater, whereas an effect was not observed from sodium hypochlorite at 200 ppm (FIG. 7). The same results as the results for M. intracellulare were obtained.

On to `OCl` [sodium hypochlorite], for which the “disinfecting effect (FIG. 1)” value in test [1] (absence and presence of organic matter (0.5% BSA)) is given as “not found”. Also, the “free chlorine concentration (as Cl) at which a disinfecting effect (reducing the bacteria count 4 log or greater) is exhibited” value in test [1] (absence of an organic matter) is recorded as > 200 ppm; in test [1] (presence of an organic matter (0.5% BSA)), > 1000 ppm. Further, the “state of chromosomal DNA band in pulsed-field gel electrophoresis” value in test [2] is recorded as “a band is formed at the same position as water”. In addition, the entries for the “free chlorine at which a disinfecting effect was observed” value in test [3] (absence of organic matters (FIG. 7)) and in test [3] (presence of 0.5% BSA (FIG. 8)) were > 200 ppm and > 1000 ppm, respectively.
